Patent US11560362B2, “Dibutylfluorene derivative and application thereof as photoinitiator” (HUI ZHOU HUAHONG NEW MATERIAL CO., LTD., priority 2017, dated 2023)

Assays:
[1] = Stability analysis: mobility of initiator compound from cured print into analog solutions, by HPLC; type: physicochemical; conditions: 40° C. for 10 days, calculated for 1 kg of food per 600 cm^2 printing area
Procedure: The cardboard is cut to a size of 10×10 cm, is completely immersed in two analog solutions, i. e., 100 ml distilled water and 3% acetic acid aqueous solution, sealing is performed well, and placement is performed at 40° C. for 10 days. The printed matter is taken out, and after standing, the contents of the initiator compounds in the analog solutions are directly analyzed by means of HPLC.

[2] = Solubility of solid photoinitiator in liquid polymerized monomer (HDDA or TPGDA); conditions: dissolved at 50-60° C., stored at room temperature

Structure (SMILES)	Mobility ([1]; 3% acetic acid)	Mobility ([1]; Water)	Solubility ([2]; Polymerized monomer 1: HDDA)	Solubility ([2]; Polymerized monomer 2: TPGDA)
CCCCC1(CCCC)c2ccccc2-c2ccc(C(=O)C(C)(C)N3CCOCC3)cc21 [2-methyl-1-(2-(9,9-dibutylfluorenyl))-2-(N-morpholinyl)-1-acetone]	60 µg/kg	50 µg/kg		
CC(C)(C(=O)c1ccc(-c2ccccc2)cc1)N1CCOCC1 [2-methyl-1-(4-biphenyl)-2-morpholinyl-1-acetone]	98 µg/kg	80 µg/kg	20 % (mass fraction)	15 % (mass fraction)
